Reference: ChEMBL document CHEMBL4680147, “Discovery of 6'-chloro-N-methyl-5'-(phenylsulfonamido)-[3,3'-bipyridine]-5-carboxamide (CHMFL-PI4K-127) as a novel Plasmodium falciparum PI(4)K inhibitor with potent antimalarial activity against both blood and liver stages of Plasmodium” (Eur J Med Chem, 2020)

Assays:
[1] = AUC(0 to t) in mouse at 10 mg/kg, po; format: ADME, organism-based; parameters: dose 10 mg/kg; settings: in vivo
[2] = Mean residence time (0 to t) in mouse at 10 mg/kg, po; format: ADME, organism-based; settings: in vivo
Plasmodium falciparum [3] = assay: Antimalarial activity against blood stage Plasmodium falciparum harboring PI4K Y1342I mutant infected in human O+ erythrocytes incubated for 72 hrs by SYBR Green 1 dye based fluorescence assay; format: functional, organism-based; settings: Erythrocyte
[4] = Cmax in Sprague-Dawley rat at 1 mg/kg, iv; format: ADME, organism-based; parameters: route intravenous, dose 1 mg/kg; settings: in vivo
Plasmodium falciparum [5] = assay: Antimalarial activity against sulphadoxine-resistant blood stage Plasmodium falciparum 3D7 infected in human O+ erythrocytes incubated for 72 hrs by SYBR Green 1 dye based fluorescence assay; format: functional, organism-based; settings: 3D7, Erythrocyte
[6] = biological target: T1, Phosphatidylinositol 4,5-bisphosphate 3-kinase catalytic subunit delta isoform (Homo sapiens, UniProt O00329); assay: Inhibition of human PI3Kdelta by ADP-Glo kinase assay
T1 sequence (O00329 whole entry): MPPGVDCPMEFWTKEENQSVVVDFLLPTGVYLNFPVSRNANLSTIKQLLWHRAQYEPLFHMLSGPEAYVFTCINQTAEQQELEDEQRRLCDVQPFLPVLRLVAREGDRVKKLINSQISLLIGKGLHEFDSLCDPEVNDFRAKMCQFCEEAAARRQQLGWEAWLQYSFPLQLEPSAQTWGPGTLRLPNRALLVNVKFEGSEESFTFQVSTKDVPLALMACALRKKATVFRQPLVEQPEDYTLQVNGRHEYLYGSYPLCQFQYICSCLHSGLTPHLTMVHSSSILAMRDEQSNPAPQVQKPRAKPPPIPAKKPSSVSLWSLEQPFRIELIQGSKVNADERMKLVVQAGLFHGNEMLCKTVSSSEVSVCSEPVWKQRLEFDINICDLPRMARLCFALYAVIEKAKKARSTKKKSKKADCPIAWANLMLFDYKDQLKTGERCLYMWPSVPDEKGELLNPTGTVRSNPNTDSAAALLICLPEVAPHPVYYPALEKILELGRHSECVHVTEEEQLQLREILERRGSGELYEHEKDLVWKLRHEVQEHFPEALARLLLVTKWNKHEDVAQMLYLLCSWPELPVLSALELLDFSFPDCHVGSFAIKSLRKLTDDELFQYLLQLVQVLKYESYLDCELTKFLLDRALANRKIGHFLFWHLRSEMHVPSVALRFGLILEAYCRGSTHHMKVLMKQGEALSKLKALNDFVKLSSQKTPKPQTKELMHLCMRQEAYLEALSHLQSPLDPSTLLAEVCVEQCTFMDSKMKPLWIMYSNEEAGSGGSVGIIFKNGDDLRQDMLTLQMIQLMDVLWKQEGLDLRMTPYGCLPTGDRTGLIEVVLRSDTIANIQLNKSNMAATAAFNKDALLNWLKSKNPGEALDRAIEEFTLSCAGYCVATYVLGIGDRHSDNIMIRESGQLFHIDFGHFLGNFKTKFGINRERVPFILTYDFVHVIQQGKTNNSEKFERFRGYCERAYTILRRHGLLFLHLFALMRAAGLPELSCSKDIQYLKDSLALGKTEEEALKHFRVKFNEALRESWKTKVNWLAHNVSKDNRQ

[7] = Selectivity index, ratio of IC50 for human PI3Kdelta to IC50 for recombinant His-tagged Plasmodium falciparum 3D7 PI4K expressed in baculovirus infected Sf9 cells
[8] = AUC(0 to infinity) in mouse at 1 mg/kg, iv; format: ADME, organism-based; parameters: time infinity, route intravenous, dose 1 mg/kg; settings: in vivo
[9] = Selectivity index, ratio of IC50 for human PI3Kalpha to IC50 for recombinant His-tagged Plasmodium falciparum 3D7 PI4K expressed in baculovirus infected Sf9 cells
[10] = AUC(0 to infinity) in Sprague-Dawley rat at 1 mg/kg, iv; format: ADME, organism-based; parameters: time infinity, route intravenous, dose 1 mg/kg; settings: in vivo
Plasmodium falciparum [11] = assay: Antimalarial activity against pyrimethamine/chloroquine resistant Plasmodium falciparum PC26 infected in human O+ erythrocytes incubated for 72 hrs by SYBR Green 1 dye based fluorescence assay; format: functional, organism-based; settings: PC26, Erythrocyte
[12] = Apparent volume of distribution in Sprague-Dawley rat at 1 mg/kg, iv; format: ADME, organism-based; settings: in vivo, read-out: Vz
[13] = Apparent clearance in Sprague-Dawley rat at 1 mg/kg, iv; format: ADME, organism-based; settings: in vivo, read-out: CL(app) (converted)
[14] = Mean residence time (0 to t) in Sprague-Dawley rat at 10 mg/kg, po; format: ADME, organism-based; settings: in vivo
[15] = Selectivity index, ratio of IC50 for human PI4K3beta to IC50 for recombinant His-tagged Plasmodium falciparum 3D7 PI4K expressed in baculovirus infected Sf9 cells
[16] = Mean residence time (0 to t) in mouse at 1 mg/kg, iv; format: ADME, organism-based; settings: in vivo
[17] = Mean residence time (0 to t) in Sprague-Dawley rat at 1 mg/kg, iv; format: ADME, organism-based; settings: in vivo
[18] = Inhibition of human PIK3C2alpha by ADP-Glo kinase assay
Plasmodium falciparum [19] = assay: Antimalarial activity against blood stage Plasmodium falciparum harboring PI4K Y1342I/T1360A mutant infected in human O+ erythrocytes incubated for 72 hrs by SYBR Green 1 dye based fluorescence assay; format: functional, organism-based; settings: Erythrocyte
[20] = biological target: Phosphatidylinositol 4,5-bisphosphate 3-kinase catalytic subunit alpha isoform (Homo sapiens, UniProt P42336); assay: Inhibition of human PI3Kalpha by ADP-Glo kinase assay
Sequence of Phosphatidylinositol 4,5-bisphosphate 3-kinase catalytic subunit alpha isoform (P42336 whole entry, canonical isoform): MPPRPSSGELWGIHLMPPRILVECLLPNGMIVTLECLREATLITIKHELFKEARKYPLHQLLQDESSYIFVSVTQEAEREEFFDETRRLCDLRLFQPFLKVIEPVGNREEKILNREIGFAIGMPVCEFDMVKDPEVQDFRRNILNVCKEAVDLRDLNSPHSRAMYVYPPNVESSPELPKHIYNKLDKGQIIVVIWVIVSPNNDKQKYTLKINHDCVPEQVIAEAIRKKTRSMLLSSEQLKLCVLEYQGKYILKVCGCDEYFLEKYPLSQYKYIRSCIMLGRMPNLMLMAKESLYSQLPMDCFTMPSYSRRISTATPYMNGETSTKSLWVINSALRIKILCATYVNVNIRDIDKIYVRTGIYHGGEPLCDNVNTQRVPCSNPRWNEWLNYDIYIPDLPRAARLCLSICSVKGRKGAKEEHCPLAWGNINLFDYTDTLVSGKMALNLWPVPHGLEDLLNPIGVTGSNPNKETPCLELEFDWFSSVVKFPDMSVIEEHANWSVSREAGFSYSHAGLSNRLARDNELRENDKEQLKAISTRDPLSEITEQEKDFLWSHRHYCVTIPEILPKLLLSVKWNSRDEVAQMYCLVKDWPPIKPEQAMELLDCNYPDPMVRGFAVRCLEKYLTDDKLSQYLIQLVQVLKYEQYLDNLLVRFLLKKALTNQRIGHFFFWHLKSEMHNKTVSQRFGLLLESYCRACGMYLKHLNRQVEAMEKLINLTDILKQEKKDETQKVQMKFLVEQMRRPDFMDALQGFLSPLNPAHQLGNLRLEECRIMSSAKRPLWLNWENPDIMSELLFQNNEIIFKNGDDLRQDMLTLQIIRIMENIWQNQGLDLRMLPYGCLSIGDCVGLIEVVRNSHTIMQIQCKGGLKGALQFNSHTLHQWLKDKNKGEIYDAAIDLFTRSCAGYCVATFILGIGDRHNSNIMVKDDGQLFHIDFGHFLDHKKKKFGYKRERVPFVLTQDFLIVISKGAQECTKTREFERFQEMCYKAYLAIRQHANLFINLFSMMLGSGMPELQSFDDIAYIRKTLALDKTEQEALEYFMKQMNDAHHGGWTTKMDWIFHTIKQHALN

[21] = AUC(0 to t) in mouse at 1 mg/kg, iv; format: ADME, organism-based; parameters: dose 1 mg/kg; settings: in vivo
[22] = biological target: Phosphatidylinositol 3-kinase catalytic subunit type 3 (Homo sapiens, UniProt Q8NEB9); assay: Inhibition of human VPS34 by ADP-Glo kinase assay
Sequence of Phosphatidylinositol 3-kinase catalytic subunit type 3 (Q8NEB9 whole entry): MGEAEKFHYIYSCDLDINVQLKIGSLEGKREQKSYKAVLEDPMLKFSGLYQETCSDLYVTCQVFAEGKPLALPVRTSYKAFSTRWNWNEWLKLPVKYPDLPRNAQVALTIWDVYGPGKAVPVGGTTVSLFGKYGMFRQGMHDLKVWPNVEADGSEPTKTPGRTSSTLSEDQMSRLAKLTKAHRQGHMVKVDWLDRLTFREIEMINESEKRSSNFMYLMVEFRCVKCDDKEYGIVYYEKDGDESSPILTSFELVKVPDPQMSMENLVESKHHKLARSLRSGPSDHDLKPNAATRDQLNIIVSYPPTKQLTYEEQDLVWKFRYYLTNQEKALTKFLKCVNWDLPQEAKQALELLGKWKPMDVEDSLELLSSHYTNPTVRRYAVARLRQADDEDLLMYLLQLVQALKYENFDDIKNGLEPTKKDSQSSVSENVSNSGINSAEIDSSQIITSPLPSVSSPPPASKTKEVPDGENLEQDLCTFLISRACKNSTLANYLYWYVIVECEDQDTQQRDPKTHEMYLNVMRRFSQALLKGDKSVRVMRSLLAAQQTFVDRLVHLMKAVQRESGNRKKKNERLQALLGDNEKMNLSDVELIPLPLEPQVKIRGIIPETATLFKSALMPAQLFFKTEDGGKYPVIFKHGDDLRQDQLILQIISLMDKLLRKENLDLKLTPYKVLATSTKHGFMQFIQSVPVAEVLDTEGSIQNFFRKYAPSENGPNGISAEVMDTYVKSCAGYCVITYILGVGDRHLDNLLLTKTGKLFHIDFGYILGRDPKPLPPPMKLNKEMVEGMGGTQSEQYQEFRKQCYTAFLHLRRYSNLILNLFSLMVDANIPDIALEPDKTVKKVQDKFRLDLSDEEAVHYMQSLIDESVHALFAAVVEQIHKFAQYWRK

Plasmodium falciparum [23] = assay: Antimalarial activity against pyrimethamine/chloroquine resistant Plasmodium falciparum C2A infected in human O+ erythrocytes incubated for 72 hrs by SYBR Green 1 dye based fluorescence assay; format: functional, organism-based; settings: Erythrocyte
[24] = Apparent volume of distribution in Sprague-Dawley rat at 10 mg/kg, po; format: ADME, organism-based; settings: in vivo
[25] = AUC(0 to infinity) in mouse at 10 mg/kg, po; format: ADME, organism-based; parameters: route oral, time infinity, dose 10 mg/kg; settings: in vivo
[26] = Cmax in mouse at 1 mg/kg, iv; format: ADME, organism-based; parameters: route intravenous, dose 1 mg/kg; settings: in vivo
[27] = Oral bioavailability in mouse at 10 mg/kg; format: ADME, organism-based; settings: in vivo

## CNC(=O)c1cncc(-c2cnc(Cl)c(NS(=O)(=O)c3ccccc3)c2)c1
[1]
  AUC(0-t): 2630 ng·h/mL
[2]
  MRT last: 4.4 h
Plasmodium falciparum [3]
  EC50: 10.2 nM
[4]
  Cmax: 5010 ng/mL
Plasmodium falciparum [5]
  EC50: 25.1 nM
[6]
  IC50: 104 nM
[7]
  Ratio IC50: 100
[8]
  AUC(0-inf): 292 ng·h/mL
[9]
  Ratio IC50: 100
[10]
  AUC(0-inf): 2170 ng·h/mL
Plasmodium falciparum [11]
  EC50: 44 nM
[12]
  Vd: 2.6 L/kg
[13]
  clearance: 8.33 mL/min/kg
[14]
  MRT last: 4.3 h
[15]
  Ratio IC50: 400
[16]
  MRT last: 3.1 h
[17]
  MRT last: 1 h
[18]
  IC50: > 10000 nM
Plasmodium falciparum [19]
  EC50: 248 nM
[20]
  IC50: 191 nM
[21]
  AUC(0-t): 327 ng·h/mL
[22]
  IC50: 681 nM
Plasmodium falciparum [23]
  EC50: 28 nM
[24]
  Vz: 2.2 L/kg
[25]
  AUC(0-inf): 2380 ng·h/mL
[26]
  Cmax: 718 ng/mL
[27]
  bioavailability: 80%
